# Test results published in PubChem BioAssay AID330 (DTP/NCI, 2004).
# Values joined by “and” are separate entries in the source; they are usually repeats but may differ in a detail not shown here. Identical values can stand only once. Inconclusive results and toxic doses are left out. Peptide text beside a SMILES is read from it.
# Test system: P388 leukemia ip, CD2F1 mice, survival T/C
# Test: NCI In Vivo Anticancer Drug Screen. Data for tumor model P388 Leukemia (intraperitoneal) in CD2F1 (CDF1) mice
# Conditions: endpoint: median survival time, higher = longer survival
# In short: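 Mice carrying the transplanted tumor received test compound or vehicle. Survival was recorded in each group, and the value is the treated-group measurement divided by that of the vehicle-treated control group.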
# [1] = dose: 50.0 mg/kg/injection, schedule: Q01DX005 (ip), vehicle: Klucel (hydroxypropylcellulose) (HPC)
# [2] = dose: 100.0 mg/kg/injection, schedule: Q01DX005 (ip), vehicle: Klucel (hydroxypropylcellulose) (HPC)
# [3] = dose: 200.0 mg/kg/injection, schedule: Q01DX005 (ip), vehicle: Klucel (hydroxypropylcellulose) (HPC)
# [4] = dose: 50.0 mg/kg/injection, schedule: Q01DX005 (ip), vehicle: saline
# [5] = dose: 100.0 mg/kg/injection, schedule: Q01DX005 (ip), vehicle: saline
# [6] = dose: 200.0 mg/kg/injection, schedule: Q01DX005 (ip), vehicle: saline
# [7] = dose: 50.0 mg/kg/injection, schedule: Q01DX009 (ip), vehicle: saline
# [8] = dose: 6.25 mg/kg/injection, schedule: Q01DX009 (ip), vehicle: other
# [9] = dose: 50.0 mg/kg/injection, schedule: Q01DX009 (ip), vehicle: Klucel (hydroxypropylcellulose) (HPC)
# [10] = dose: 100.0 mg/kg/injection, schedule: Q01DX009 (ip), vehicle: Klucel (hydroxypropylcellulose) (HPC)
# [11] = dose: 100.0 mg/kg/injection, schedule: Q01DX009 (ip), vehicle: saline with Tween-80
# [12] = dose: 60.0 mg/kg/injection, schedule: Q01DX005 (ip), vehicle: saline with Tween-80
# [13] = dose: 120.0 mg/kg/injection, schedule: Q01DX005 (ip), vehicle: saline with Tween-80
# [14] = dose: 240.0 mg/kg/injection, schedule: Q01DX005 (ip), vehicle: saline with Tween-80
# [15] = dose: 60.0 mg/kg/injection, schedule: Q01DX005 (ip), vehicle: Klucel (hydroxypropylcellulose) (HPC)
# [16] = dose: 120.0 mg/kg/injection, schedule: Q01DX005 (ip), vehicle: Klucel (hydroxypropylcellulose) (HPC)
# [17] = dose: 240.0 mg/kg/injection, schedule: Q01DX005 (ip), vehicle: Klucel (hydroxypropylcellulose) (HPC)
# [18] = dose: 30.0 mg/kg/injection, schedule: Q01DX005 (ip), vehicle: Klucel (hydroxypropylcellulose) (HPC)
structure (smiles),measurement,setting,value
CCOC(=O)CSc1nnc(-c2ccc3c(c2)OCO3)o1,T/C,"dose: 62.5 mg/kg/injection, schedule: Q01DX001 (ip), vehicle: Klucel (hydroxypropylcellulose) (HPC)",102 % of control
same,T/C,"dose: 125.0 mg/kg/injection, schedule: Q01DX001 (ip), vehicle: Klucel (hydroxypropylcellulose) (HPC)",105 % of control
same,T/C,"dose: 250.0 mg/kg/injection, schedule: Q01DX001 (ip), vehicle: Klucel (hydroxypropylcellulose) (HPC)",108 % of control
COc1cc(CCN=Cc2ccccc2O)c([N+](=O)[O-])cc1OC,T/C,[1],97 % of control
same,T/C,[2],100 % of control
same,T/C,[3],92 % of control
COC(=O)C1(c2ccccc2)OP2(N(C)C)(OC1(C(=O)OC)c1ccccc1)N(C)CCN2C (centres undefined),T/C,"dose: 50.0 mg/kg/injection, schedule: Q01DX005 (ip), vehicle: saline + Tween-80 + alcohol",104 % of control
same,T/C,"dose: 50.0 mg/kg/injection, schedule: Q01DX005 (ip), vehicle: saline with Tween-80",102 % of control
same,T/C,"dose: 100.0 mg/kg/injection, schedule: Q01DX005 (ip), vehicle: saline + Tween-80 + alcohol",100 % of control
same,T/C,"dose: 100.0 mg/kg/injection, schedule: Q01DX005 (ip), vehicle: saline with Tween-80",102 % of control
same,T/C,"dose: 200.0 mg/kg/injection, schedule: Q01DX005 (ip), vehicle: saline + Tween-80 + alcohol",100 % of control
same,T/C,"dose: 200.0 mg/kg/injection, schedule: Q01DX005 (ip), vehicle: saline with Tween-80",105 % of control
COc1cncn2c(C)nnc12,T/C,[4],100 % of control
same,T/C,[5],99 % of control
same,T/C,[6],94 % of control
[Cl][Sn]1([c]2ccccc2)[O]CCNCC[O]1,T/C,"dose: 25.0 mg/kg/injection, schedule: Q01DX009 (ip), vehicle: suspension in saline",97 % of control
same,T/C,[7],120 % of control
same,T/C,"dose: 50.0 mg/kg/injection, schedule: Q01DX009 (ip), vehicle: suspension in saline",109 % of control
same,T/C,"dose: 100.0 mg/kg/injection, schedule: Q01DX009 (ip), vehicle: suspension in saline",109 % of control
Cc1ccc(S(=O)(=O)N/N=C/C(=O)O)cc1,T/C,"dose: 6.25 mg/kg/injection, schedule: Q01DX009 (ip), vehicle: Klucel (hydroxypropylcellulose) (HPC)",110 % of control and 119 % of control
same,T/C,[8],106 % of control
same,T/C,"dose: 6.25 mg/kg/injection, schedule: Q01DX009 (ip), vehicle: water",108 % of control
same,T/C,"dose: 12.5 mg/kg/injection, schedule: Q01DX009 (ip), vehicle: Klucel (hydroxypropylcellulose) (HPC)",114 % of control and 117 % of control and 122 % of control
same,T/C,"dose: 12.5 mg/kg/injection, schedule: Q01DX009 (ip), vehicle: saline with Tween-80",121 % of control
same,T/C,[9],152 % of control
same,T/C,[10],104 % of control and 119 % of control and 117 % of control
same,T/C,[11],107 % of control
O=C1c2ccccc2C(=O)c2c(NCCSCCO)ccc(NCCSCCO)c21,T/C,"dose: 16.0 mg/kg/injection, schedule: Q01DX009 (ip), vehicle: Klucel (hydroxypropylcellulose) (HPC)",92 % of control
same,T/C,"dose: 32.0 mg/kg/injection, schedule: Q01DX009 (ip), vehicle: Klucel (hydroxypropylcellulose) (HPC)",96 % of control
same,T/C,"dose: 64.0 mg/kg/injection, schedule: Q01DX009 (ip), vehicle: Klucel (hydroxypropylcellulose) (HPC)",89 % of control
same,T/C,"dose: 128.0 mg/kg/injection, schedule: Q01DX009 (ip), vehicle: Klucel (hydroxypropylcellulose) (HPC)",86 % of control
CCC(c1ccc(C(C)=O)c(O)c1)C(CC)c1ccc(C(C)=O)c(O)c1 (centres undefined),T/C,[12],97 % of control
same,T/C,[13],90 % of control
same,T/C,[14],88 % of control
BrCCc1ccccc1Br,T/C,"dose: 50.0 mg/kg/injection, schedule: Q01DX005 (ip), vehicle: distilled water + alcohol",105 % of control
same,T/C,"dose: 100.0 mg/kg/injection, schedule: Q01DX005 (ip), vehicle: distilled water + alcohol",97 % of control
same,T/C,"dose: 200.0 mg/kg/injection, schedule: Q01DX005 (ip), vehicle: distilled water + alcohol",97 % of control
C=C1CCC(OC(C)=O)C2(C)C(OC(C)=O)CC3OC3(C)C2C(OC(C)=O)C2C(C)C(=O)OC2C1Cl (centres undefined),T/C,"dose: 25.0 mg/kg/injection, schedule: Q01DX009 (ip), vehicle: Klucel (hydroxypropylcellulose) (HPC)",99 % of control
same,T/C,[9],97 % of control
same,T/C,[10],96 % of control
same,T/C,"dose: 200.0 mg/kg/injection, schedule: Q01DX009 (ip), vehicle: Klucel (hydroxypropylcellulose) (HPC)",93 % of control
CC(C)CC(NC(=O)C(N)Cc1c[nH]c2ccccc12)C(N)=O (stereo not drawn) (H-Trp-Leu-NH2; configuration not given here),T/C,"dose: 200.0 mg/kg/injection, schedule: Q04DX003 (ip), vehicle: saline",95 % of control
same,T/C,"dose: 400.0 mg/kg/injection, schedule: Q04DX003 (ip), vehicle: saline",106 % of control
CCCCCCCCCCN1CCC(N2CCCCC2)CC1,T/C,"dose: 12.5 mg/kg/injection, schedule: Q01DX009 (ip), vehicle: saline",98 % of control
same,T/C,"dose: 25.0 mg/kg/injection, schedule: Q01DX009 (ip), vehicle: saline",100 % of control
same,T/C,[7],99 % of control
same,T/C,"dose: 100.0 mg/kg/injection, schedule: Q01DX009 (ip), vehicle: saline",93 % of control
COC1OCCC(n2c(C)cc3c(N)ncnc32)C1O (centres undefined),T/C,[1],101 % of control and 102 % of control
same,T/C,[15],100 % of control
same,T/C,[2],100 % of control and 103 % of control
same,T/C,[16],103 % of control
same,T/C,[3],93 % of control
same,T/C,[17],96 % of control
Cc1ccc(C(N)=Nc2ccccc2)cc1,T/C,[12],100 % of control
Cc1nc(Nc2c(C)cccc2C)c2c(-c3ccccc3)c[nH]c2n1,T/C,[1],99 % of control
same,T/C,[2],94 % of control
same,T/C,[3],92 % of control
COc1nc2ccccc2nc1OC,T/C,[11],97 % of control
same,T/C,"dose: 200.0 mg/kg/injection, schedule: Q01DX009 (ip), vehicle: saline with Tween-80",100 % of control
same,T/C,"dose: 400.0 mg/kg/injection, schedule: Q01DX009 (ip), vehicle: saline with Tween-80",97 % of control
CC(=O)OC(=O)c1c(OC(C)=O)cc(C)c2c1CC(C1(C)CO1)CC2 (centres undefined),T/C,"dose: 1.88 mg/kg/injection, schedule: Q01DX005 (ip), vehicle: Klucel (hydroxypropylcellulose) (HPC)",100 % of control
same,T/C,"dose: 3.75 mg/kg/injection, schedule: Q01DX005 (ip), vehicle: Klucel (hydroxypropylcellulose) (HPC)",99 % of control
same,T/C,"dose: 7.5 mg/kg/injection, schedule: Q01DX005 (ip), vehicle: Klucel (hydroxypropylcellulose) (HPC)",100 % of control
same,T/C,"dose: 15.0 mg/kg/injection, schedule: Q01DX005 (ip), vehicle: Klucel (hydroxypropylcellulose) (HPC)",100 % of control
same,T/C,[18],101 % of control
Cc1[nH]c(=O)[nH]c(=O)c1/C=C/C(=O)NC(CO)CSCc1ccccc1 (centres undefined),T/C,[8],94 % of control
same,T/C,"dose: 12.5 mg/kg/injection, schedule: Q01DX009 (ip), vehicle: other",94 % of control
same,T/C,"dose: 25.0 mg/kg/injection, schedule: Q01DX009 (ip), vehicle: other",94 % of control
same,T/C,"dose: 50.0 mg/kg/injection, schedule: Q01DX009 (ip), vehicle: other",88 % of control
same,T/C,"dose: 100.0 mg/kg/injection, schedule: Q01DX009 (ip), vehicle: other",87 % of control
same,T/C,"dose: 200.0 mg/kg/injection, schedule: Q01DX009 (ip), vehicle: other",98 % of control
same,T/C,"dose: 400.0 mg/kg/injection, schedule: Q01DX009 (ip), vehicle: other",95 % of control
COc1ccc2c(NCCCCCCCCCCNc3c4ccccc4nc4cc(OC)ccc34)c3ccccc3nc2c1,T/C,"dose: 2.5 mg/kg/injection, schedule: Q01DX009 (ip), vehicle: other",153 % of control
same,T/C,"dose: 5.0 mg/kg/injection, schedule: Q01DX009 (ip), vehicle: other",155 % of control
CCOC(=O)C1CCCCC12OCCO2 (centres undefined),T/C,[4],95 % of control
same,T/C,[5],96 % of control
same,T/C,[6],95 % of control
COc1ccc(-c2cn(-c3ccc(I)cc3)c3ncnc(N)c23)cc1,T/C,[12],99 % of control
same,T/C,[13],105 % of control
same,T/C,[14],90 % of control
CC(/C=C/c1ccc(O)cc1)=N\NC(N)=O,T/C,[18],103 % of control
same,T/C,[15],99 % of control
same,T/C,[16],104 % of control
same,T/C,[17],101 % of control
